Reference: patent US20080152714A1, “Pharmaceutical Formulations” (priority 2005, published 2008)
Where two headings read alike, the source gives them in different places.

How the values were obtained:
[1] = Intrinsic dissolution rate (IDR); format: physicochemical; conditions: pH 6.8, 50 mM sodium citrate buffer, 37° C.
Method: The intrinsic dissolution rate is the rate of dissolution of pharmaceutically acceptable ingredients when conditions such as surface area, agitation or stirring speed, pH and ionic strength of the dissolution medium are held constant.
Pellets of the salts were prepared by compressing ca. 100 mg of the compound in a stainless steel die under 1300 pounds force with a dwell time of one minute. The die containing the tablet was submerged in 400 mL of the dissolution medium at 37° C. The solution was stirred by a paddle at ˜60 rpm. At each time point, 3 mL of sample was withdrawn and filtered. After discarding the first half of the filtrate, the remainder was collected and assayed by HPLC method above. The total volume of the dissolution medium was kept at a constant by replenishing the lost volume at each data point with fresh buffer at 37 C.

[2] = Solubility of fenofibric acid salts in water at 25° C.; format: physicochemical
Method: Solubility Determination: Solubility values of fenofibric acid salts in water were determined at 25° C. The salts were weighed into glass vials and water was added. The suspensions were rotated from end to end for about 2 days in a 25° C. water bath. The pH of the suspensions was measured. The residual solid was then removed via filtration through a 0.45 μm PTFE membrane filter. The resulting saturated solution was diluted appropriately into the HPLC mobile phase, and analyzed by the HPLC assay described below (Table 3). The powder x-ray diffraction pattern of the collected residual solid was recorded at the end of experiment.

Compound | IDR [1] [mg/min/cm^2] | solubility ([2]; read-out: Solubility) [mg/mL] | solubility [2] [mg/mL]
C[N+](C)(C)CCO [Choline] | 14.50 | > 300 | 
NCCO [Ethanolamine] | 8.05 |  | 
CC(C)(Oc1ccc(C(=O)c2ccc(Cl)cc2)cc1)C(=O)O [Free acid, 2-[4-(4-chlorobenzoyl)phenoxy]-2-methyl-propanoic acid, reference compound] | 0.30 | 0.265 | 
CN(C)C(=N)N=C(N)N [Metformin] | 7.09 |  | 
CCN(CC)CCOC(=O)c1ccc(N)cc1 [Procaine] | 1.06 | 7.2 | 
Calcium | 0.10 |  | 
Tris | 0.67 |  | 5.45
